From patent publication US4584377A, “Novel Fredericamycin A derivatives” (SS Pharmaceutical Co., Ltd., priority 1983, dated 1986)

What was measured:
various microorganisms [1] = experiment: Antibacterial activities against the tested microorganisms (general statement); assay type: cell-based; conditions: for each of the tested microorganism (Table 1)
Experimental: It should be noted that the MIC of Fredericamycin A was 100 μg/ml or more for each of the tested microorganism.
Culture conditions for the test microorganisms:
Inoculum size: 1×10^6 cells/ml. In the case of bacteria, each bacterium was cultured at 37° C. for 18-20 hours on a Mueller-Hinton agar (product of Difco Corp.). In the case of yeasts and molds, each microorganism was cultured at 28° C. for 120 hours on a glucose-peptone agar.

various microorganisms [2] = conditions: prior art statement; cited from earlier work
[3] = prior art statement; cited from earlier work
physchem = assay type: physicochemical; conditions: 10 μg/ml in dimethylsulfoxide/physiological saline
Experimental: The stability of some Fredericamycin A derivatives and Fredericamycin A in their aqueous solutions were tested in accordance with the following procedures.
The test compounds were individually dissolved in dimethylsulfoxide, followed by dilution of the resulting solutions with physiological saline to adjust the final concentrations of the test compounds and Fredericamycin to 10 μg/ml respectively. The thus-prepared test solutions were then subjected to high performance liquid chromatography after predetermined time intervals to measure the percentage remainders of the test compounds.

[4] = tested on: Staphylococcus aureus Smith; experiment: MIC, antibacterial activity (agar culture); assay type: cell-based; conditions: 37° C., 18-20 hours, Mueller-Hinton agar, read-out: Minimum inhibitory concentration MIC
[5] = tested on: Cladosporium fulvum IAM 5006; experiment: MIC, yeasts and molds (agar culture); assay type: cell-based; conditions: Fulvia fulva, IAM5006, 28° C., 120 hours, glucose-peptone agar, read-out: Minimum inhibitory concentration MIC
Seratia marcescens NHL = experiment: MIC, antibacterial activity (agar culture); assay type: cell-based; conditions: 37° C., 18-20 hours, Mueller-Hinton agar, read-out: Minimum inhibitory concentration MIC
[6] = tested on: Helmintsporium sesamum IAM 5012; experiment: MIC, yeasts and molds (agar culture); assay type: cell-based; conditions: 28° C., 120 hours, glucose-peptone agar, read-out: Minimum inhibitory concentration MIC
Ehrlich carcinoma = experiment: Antitumor effect, survival of tumor-inoculated mice; assay type: in vivo, ICR mice; conditions: Mus musculus, ip, 240 h, intraperitoneally, once a day for 10 days, read-out: percentage of mean survival time of test and control animals
[7] = tested on: Aspergillus oryzae IFM 4014; experiment: MIC, yeasts and molds (agar culture); assay type: cell-based; conditions: IFM4014, 28° C., 120 hours, glucose-peptone agar, read-out: Minimum inhibitory concentration MIC
[8] = tested on: Staphylococcus aureus FDA 209P; experiment: MIC, antibacterial activity (agar culture); assay type: cell-based; conditions: FDA209P, 37° C., 18-20 hours, Mueller-Hinton agar, read-out: Minimum inhibitory concentration MIC
[9] = tested on: Klebsiella pneumoniae ATCC 10031; experiment: MIC, antibacterial activity (agar culture); assay type: cell-based; conditions: ATCC10031, 37° C., 18-20 hours, Mueller-Hinton agar, read-out: Minimum inhibitory concentration MIC
[10] = tested on: Penicillium chrysogenum ATCC 6010; experiment: MIC, yeasts and molds (agar culture); assay type: cell-based; conditions: ATCC6010, 28° C., 120 hours, glucose-peptone agar, read-out: Minimum inhibitory concentration MIC
[11] = tested on: Microsporum gypseum IFO 8231; experiment: MIC, yeasts and molds (agar culture); assay type: cell-based; conditions: Nannizzia gypsea, IFO8231, 28° C., 120 hours, glucose-peptone agar, read-out: Minimum inhibitory concentration MIC
[12] = tested on: Fusarium moniliforme IAM 5062; experiment: MIC, yeasts and molds (agar culture); assay type: cell-based; conditions: Fusarium verticillioides, IAM5062, 28° C., 120 hours, glucose-peptone agar, read-out: Minimum inhibitory concentration MIC
[13] = tested on: Trichophyton mentagrophytes QM 248; experiment: MIC, yeasts and molds (agar culture); assay type: cell-based; conditions: QM248, 28° C., 120 hours, glucose-peptone agar, read-out: Minimum inhibitory concentration MIC
Proteus vulgaris OXK = experiment: MIC, antibacterial activity (agar culture); assay type: cell-based; conditions: 37° C., 18-20 hours, Mueller-Hinton agar, read-out: Minimum inhibitory concentration MIC
[14] = tested on: Micrococcus lysodeikticus IFO 3333; experiment: MIC, antibacterial activity (agar culture); assay type: cell-based; conditions: Micrococcus luteus, IFO3333, 37° C., 18-20 hours, Mueller-Hinton agar, read-out: Minimum inhibitory concentration MIC
Salmonella typhi TD = experiment: MIC, antibacterial activity (agar culture); assay type: cell-based; conditions: Salmonella enterica, read-out: Minimum inhibitory concentration MIC
Sarcina lutea ATCC 9341 = experiment: MIC, antibacterial activity (agar culture); assay type: cell-based; conditions: Micrococcus luteus, ATCC9341, 37° C., 18-20 hours, Mueller-Hinton agar, read-out: Minimum inhibitory concentration MIC
Meth-A fibrosarcoma = experiment: Antitumor effect, survival of tumor-inoculated mice; assay type: in vivo, CDF1 mice; conditions: intraperitoneally, once a day for 10 days
Experimental: Antitumor effects of some Fredericamycin A derivatives against Ehrlich carcinoma, Meth-A fibrosarcoma and mouse leukemia P-388 were tested in accordance with the following procedures. Antitumor effects against Ehrlich carcinoma and Meth-A fibrosarcoma are expressed by percentage of mean survival time of test and control animals. Antitumor effects against P-388 are expressed by percentage of median survival time of test and control animals.
(ii) Meth-A fibrosarcoma and mouse leukemia P-388:
1×10^6 tumor cells were inoculated to CDF1 mice (.male., Charles River Japan Inc.) intraperitoneally. Each tested compound was given intraperitoneally once a day for 10 days from 1 day after tumor inoculation.

Shigella flexneri 2b = experiment: MIC, antibacterial activity (agar culture); assay type: cell-based; conditions: 37° C., 18-20 hours, Mueller-Hinton agar, read-out: Minimum inhibitory concentration MIC
[15] = tested on: Pseudomonas aeruginosa IFO 13736; experiment: MIC, antibacterial activity (agar culture); assay type: cell-based; conditions: IFO13736, 37° C., 18-20 hours, Mueller-Hinton agar, read-out: Minimum inhibitory concentration MIC
[16] = tested on: Gibberella fujikuroi IAM 8046; experiment: MIC, yeasts and molds (agar culture); assay type: cell-based; conditions: Fusarium fujikuroi, IAM8046, 28° C., 120 hours, glucose-peptone agar, read-out: Minimum inhibitory concentration MIC
[17] = tested on: Bacillus subtilis ATCC 6633; experiment: MIC, antibacterial activity (agar culture); assay type: cell-based; conditions: ATCC6633, 37° C., 18-20 hours, Mueller-Hinton agar, read-out: Minimum inhibitory concentration MIC
[18] = tested on: Debaryomyces Kloecheri IFO 0015; experiment: MIC, yeasts and molds (agar culture); assay type: cell-based; conditions: IFO0015, 28° C., 120 hours, glucose-peptone agar, read-out: Minimum inhibitory concentration MIC
[19] = tested on: Streptococcus faecalis IFO 12964; experiment: MIC, antibacterial activity (agar culture); assay type: cell-based; conditions: Enterococcus faecalis, IFO12964, 37° C., 18-20 hours, Mueller-Hinton agar, read-out: Minimum inhibitory concentration MIC
Saccharomyces ruxii 6507 = experiment: MIC, yeasts and molds (agar culture); assay type: cell-based; conditions: 28° C., 120 hours, glucose-peptone agar, read-out: Minimum inhibitory concentration MIC
Escherichia coli 0-1 = experiment: MIC, antibacterial activity (agar culture); assay type: cell-based; conditions: 01, 37° C., 18-20 hours, Mueller-Hinton agar, read-out: Minimum inhibitory concentration MIC
[20] = tested on: Piricularia oryzae IAM 5016; experiment: microbe, parasite or virus in culture; assay type: cell-based; conditions: 120 h; read-out: Minimum inhibitory concentration MIC
[21] = tested on: Aspergillus niger ATCC 9642; experiment: MIC, yeasts and molds (agar culture); assay type: cell-based; conditions: ATCC9642, 28° C., 120 hours, glucose-peptone agar, read-out: Minimum inhibitory concentration MIC
[22] = tested on: Staphylococcus epidermidis ATCC 12228; experiment: MIC, antibacterial activity (agar culture); assay type: cell-based; conditions: ATCC12228, 37° C., 18-20 hours, Mueller-Hinton agar, read-out: Minimum inhibitory concentration MIC
[23] = tested on: Staphylococcus aureus TERAGIMA; experiment: MIC, antibacterial activity (agar culture); assay type: cell-based; conditions: 37° C., 18-20 hours, Mueller-Hinton agar, read-out: Minimum inhibitory concentration MIC
[24] = tested on: Candida albicans NHL 4019; experiment: MIC, yeasts and molds (agar culture); assay type: cell-based; conditions: NHL4019, 28° C., 120 hours, glucose-peptone agar, read-out: Minimum inhibitory concentration MIC

C/C=C/C=C/c1cc2cc3c(c(O)c2c(=O)[nH]1)C1(CC3)C(=O)c2c(O)c3c(c(O)c2C1=O)C(=O)C(OC)=CC3=O (stereo not shown) [Fredericamycin A]
MIC (various microorganisms [1]): ≥ 100 µg/mL | antibacterial activities (various microorganisms [2]): weak | stability [3]: low | Percentage remainder (physchem; 0 hr.): 100% | remaining at 3 h (physchem; 3 hrs., read-out: Percentage remainder): 78.9% | remaining at 6 h (physchem; 6 hrs., read-out: Percentage remainder): 64% | remaining at 24 h (physchem; 24 hrs., read-out: Percentage remainder): 38.1% | remaining at 48 h (physchem; 48 hrs., read-out: Percentage remainder): 27.3% | remaining at 72 h (physchem; 72 hrs., read-out: Percentage remainder): 18.4%

C/C=C/C=C/c1cc2cc3c(c(O)c2c(=O)[nH]1)C1(CC3)C(=O)c2c(OC(C)=O)c3c(c(OC(C)=O)c2C1=O)C(=O)C(OC)=CC3=O (stereo not shown) [Compound 1, Fredericamycin A diacetate]
MIC [4]: 6.25 µg/mL | MIC [5]: 1.56 µg/mL | MIC (Seratia marcescens NHL): > 100 µg/mL | MIC [6]: 0.78 µg/mL | response vs control in vivo at 0.125 mg/kg/day (Ehrlich carcinoma; 0.125 mg/kg/day): 147% | response vs control in vivo at 0.25 mg/kg/day (Ehrlich carcinoma; 0.25 mg/kg/day): 267% | response vs control in vivo at 0.5 mg/kg/day (Ehrlich carcinoma; 0.5 mg/kg/day): 295% | MIC [7]: 1.56 µg/mL | MIC [8]: 50 µg/mL | MIC [9]: > 100 µg/mL | MIC [10]: 0.78 µg/mL | MIC [11]: 0.39 µg/mL | MIC [12]: 50 µg/mL | MIC [13]: 0.39 µg/mL | MIC (Proteus vulgaris OXK): > 100 µg/mL | MIC [14]: 0.78 µg/mL | MIC (Salmonella typhi TD): > 100 µg/mL | MIC (Sarcina lutea ATCC 9341): 0.39 µg/mL | percentage of mean survival time of test and control animals (Meth-A fibrosarcoma; 0.25 mg/kg/day): 127% | percentage of mean survival time of test and control animals (Meth-A fibrosarcoma; 0.5 mg/kg/day): 191% | percentage of mean survival time of test and control animals (Meth-A fibrosarcoma; 1.0 mg/kg/day): 242% | MIC (Shigella flexneri 2b): > 100 µg/mL | MIC [15]: > 100 µg/mL | MIC [16]: > 100 µg/mL | MIC [17]: 0.39 µg/mL | MIC [18]: 100 µg/mL | MIC [19]: 1.56 µg/mL | MIC (Saccharomyces ruxii 6507): 0.39 µg/mL | MIC (Escherichia coli 0-1): > 100 µg/mL | MIC [20]: 0.05 µg/mL | MIC [21]: 3.12 µg/mL | MIC [22]: 0.1 µg/mL | MIC [23]: 12.5 µg/mL | MIC [24]: > 100 µg/mL
